Test results from PubChem BioAssay AID256 (DTP/NCI, 2004).
Toxic doses and inconclusive results are not listed. The calls were made as follows: active = survival T/C of 150% or more; inactive = T/C below 125% in these data.

Test system: CD2F1 mice, L1210 leukemia ip, survival T/C
Assay: NCI In Vivo Anticancer Drug Screen. Data for tumor model L1210 Leukemia (intraperitoneal) in CD2F1 (CDF1) mice
Conditions: higher = longer survival
In short: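 In this screen, transplantable tumors were grown in mice given either the compound or its vehicle. Results were expressed as the treated measurement relative to the control measurement.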

[1] = endpoint: mean survival time, dose: 100.0 mg/kg/injection, schedule: Q04DX003 (ip), vehicle: saline with Tween-80
[2] = endpoint: mean survival time, dose: 200.0 mg/kg/injection, schedule: Q04DX003 (ip), vehicle: saline with Tween-80
[3] = endpoint: mean survival time, dose: 400.0 mg/kg/injection, schedule: Q04DX003 (ip), vehicle: saline with Tween-80
[4] = endpoint: mean survival time, dose: 100.0 mg/kg/injection, schedule: Q01DX009 (ip), vehicle: saline

Measured: T/C

COc1ccc(N=C(C)C2C(=O)c3ccccc3C2=O)cc1
inactive: endpoint: median survival time, dose: 50.0 mg/kg/injection, schedule: Q01DX005 (ip), vehicle: DMSO 101 % of control | endpoint: median survival time, dose: 100.0 mg/kg/injection, schedule: Q01DX005 (ip), vehicle: DMSO 101 % of control | endpoint: median survival time, dose: 200.0 mg/kg/injection, schedule: Q01DX005 (ip), vehicle: DMSO 103 % of control | endpoint: median survival time, dose: 400.0 mg/kg/injection, schedule: Q01DX005 (ip), vehicle: DMSO 103 % of control | endpoint: median survival time, dose: 800.0 mg/kg/injection, schedule: Q01DX005 (ip), vehicle: DMSO 101 % of control

CC(=O)N/N=C1\CC2CCC1(C)C2(C)C (stereo not given)
inactive: endpoint: mean survival time, dose: 100.0 mg/kg/injection, schedule: Q01DX001 (ip), vehicle: saline 102 % of control | endpoint: mean survival time, dose: 200.0 mg/kg/injection, schedule: Q01DX001 (ip), vehicle: saline 102 % of control | endpoint: mean survival time, dose: 400.0 mg/kg/injection, schedule: Q01DX001 (ip), vehicle: saline 98 % of control

CC(C)CCCC(C)C1CCC2C3=CCC4CC(=O)CCC4(C)C3CCC21C (stereo not given)
inactive: [1] 95 % of control | [2] 92 % of control | [3] 93 % of control

Nc1ccc2c(Cl)cc(Cl)cc2c1
inactive: endpoint: mean survival time, dose: 50.0 mg/kg/injection, schedule: Q01DX009 (ip), vehicle: saline with Tween-80 102 % of control | endpoint: mean survival time, dose: 100.0 mg/kg/injection, schedule: Q01DX009 (ip), vehicle: saline with Tween-80 103 % of control | [1] 98 % of control | endpoint: mean survival time, dose: 200.0 mg/kg/injection, schedule: Q01DX009 (ip), vehicle: saline with Tween-80 96 % of control | [2] 91 % of control

O=C(O)C(F)(F)F.O=C(O)C(F)(F)F.O=C(O)C(F)(F)F.O=C(O)C(F)(F)F.[Rh].[Rh]
inactive: endpoint: mean survival time, dose: 12.5 mg/kg/injection, schedule: Q01DX009 (ip), vehicle: saline 107 % of control | endpoint: mean survival time, dose: 25.0 mg/kg/injection, schedule: Q01DX009 (ip), vehicle: saline 115 % of control | endpoint: mean survival time, dose: 50.0 mg/kg/injection, schedule: Q01DX009 (ip), vehicle: saline 118 % of control | [4] 107 % of control

C1=N/C=C\C=C/c2ccc[n+](CCCCC[n+]3ccccc3-c3ccccn3)c21
inactive: endpoint: mean survival time, dose: 7.5 mg/kg/injection, schedule: Q01DX001 (ip), vehicle: saline 98 % of control | endpoint: mean survival time, dose: 7.5 mg/kg/injection, schedule: Q04DX003 (ip), vehicle: saline 108 % of control | endpoint: mean survival time, dose: 15.0 mg/kg/injection, schedule: Q01DX001 (ip), vehicle: saline 98 % of control | endpoint: mean survival time, dose: 15.0 mg/kg/injection, schedule: Q04DX003 (ip), vehicle: saline 100 % of control | endpoint: mean survival time, dose: 30.0 mg/kg/injection, schedule: Q01DX001 (ip), vehicle: saline 98 % of control | endpoint: mean survival time, dose: 30.0 mg/kg/injection, schedule: Q04DX003 (ip), vehicle: saline 102 % of control

CC(=O)N(CCCCCCN(N=O)C(C)=O)N=O
inactive: endpoint: mean survival time, dose: 75.0 mg/kg/injection, schedule: Q01DX001 (ip), vehicle: saline 110 % of control | endpoint: mean survival time, dose: 150.0 mg/kg/injection, schedule: Q01DX001 (ip), vehicle: saline 122 % of control | endpoint: mean survival time, dose: 300.0 mg/kg/injection, schedule: Q01DX001 (ip), vehicle: saline 116 % of control

CCOC(=O)CNCC(O)C(Cl)(Cl)Cl (stereo not given)
inactive: [1] 102 % of control | [2] 98 % of control | [3] 96 % of control

O=C(Nc1ccccc1F)c1ccccc1Cl
inactive: [4] 98 % of control | endpoint: mean survival time, dose: 100.0 mg/kg/injection, schedule: Q04DX003 (ip), vehicle: saline 106 % of control | endpoint: mean survival time, dose: 200.0 mg/kg/injection, schedule: Q01DX009 (ip), vehicle: saline 92 % of control | endpoint: mean survival time, dose: 200.0 mg/kg/injection, schedule: Q04DX003 (ip), vehicle: saline 104 % of control | endpoint: mean survival time, dose: 400.0 mg/kg/injection, schedule: Q01DX009 (ip), vehicle: saline 98 % of control | endpoint: mean survival time, dose: 400.0 mg/kg/injection, schedule: Q04DX003 (ip), vehicle: saline 97 % of control

CN(C)C(=O)CCC(NC(=O)c1ccc(N(C)Cc2cnc3nc(N)nc(N)c3n2)cc1)C(=O)O (stereo not given)
inactive: endpoint: mean survival time, dose: 1.0 mg/kg/injection, schedule: Q01DX009 (ip), vehicle: sodium bicarbonate 103 % of control | endpoint: mean survival time, dose: 10.0 mg/kg/injection, schedule: Q01DX009 (ip), vehicle: sodium bicarbonate 108 % of control

Fc1ccc2c(c1)C(Br)c1ccccc1-2 (stereo not given)
inactive: endpoint: mean survival time, dose: 6.25 mg/kg/injection, schedule: Q01DX009 (ip), vehicle: saline with Tween-80 96 % of control | endpoint: mean survival time, dose: 12.5 mg/kg/injection, schedule: Q01DX009 (ip), vehicle: saline with Tween-80 96 % of control | endpoint: mean survival time, dose: 25.0 mg/kg/injection, schedule: Q01DX009 (ip), vehicle: saline with Tween-80 105 % of control | [1] 108 % of control | [2] 88 % of control | [3] 97 % of control

O=[N+]([O-])c1ccc(N/N=C2/C3CCC(C3)C2C(O)(C(F)(F)F)C(F)(F)F)c([N+](=O)[O-])c1 (stereo not given)
inactive: endpoint: mean survival time, dose: 50.0 mg/kg/injection, schedule: Q04DX003 (ip), vehicle: saline with Tween-80 94 % of control | [1] 95 % of control | [2] 94 % of control | [3] 103 % of control
